Literature values, collected in patent publication US20050287214A1, “Squeeze controlled oral dosage form” (priority 2004, published 2005).

Settings: solubility of the active agent as stated in the formulation tables; no method given

Question: With CNC(=C[N+](=O)[O-])NCCSCc1ccc(CN(C)C)o1 [Ranitidine] as the compound, how does the solubility read?
Answer: Its solubility is “Ranitidine (solubility = 880 mg/ml)”.
